Measurements published in patent US20230301300A1, “HERBICIDAL COMPOSITIONS” (SYNGENTA CROP PROTECTION AG, priority 2020, published 2023).

What was measured:
Assay type in all cases: in vivo
[1] = test system: Amaranthus retoflexus (AMARE); experiment: B1 Post-Emergence Efficacy - Test 1; settings: 1000 g/ha, after 13 days, five point scale
Method: (§1) Seeds of a variety of test species are sown in standard soil in pots:— Solanum nigrum (SOLNI), Amaranthus retoflexus (AMARE), Setaria faberi (SETFA), Alopecurus myosuroides (ALOMY), Echinochloa crus-galli (ECHCG), Ipomoea hederacea (IPOHE), Lolium perenne (LOLPE). After 8 days cultivation (post-emergence) under controlled conditions in a glasshouse (at 24/16° C., day/night; 14 hours light; 65% humidity), the plants are sprayed with an aqueous spray solution derived from the formulation of the technical active ingredient in acetone/water (50:50) solution containing 0.5% Tween 20 (polyoxyethylene sorbitan monolaurate, CAS RN 9005-64-5). Compounds are applied at 1000 g/ha. The test plants are then grown in a glasshouse under controlled conditions in a glasshouse (at 24/16° C., day/night; 14 hours light; 65% humidity) and watered twice daily. After 13 days, the test is evaluated for the percentage damage caused to the plant. The biological activities are assessed on a five point scale (5=80-100%; 4=60-79%; 3=40-59%; 2=20-39%; 1=0-19%). A blank value in the table is indicative that the compound was not tested on that species.

[2] = test system: Echinochloa crus-galli (ECHCG); experiment: B1 Post-Emergence Efficacy - Test 1; settings: 1000 g/ha, after 13 days, five point scale
Method: as §1

[3] = test system: Ipomoea hederacea (IPOHE); experiment: B1 Post-Emergence Efficacy - Test 1; settings: 1000 g/ha, after 13 days, five point scale
Method: as §1

Lolium perenne (LOLPE) [4] = experiment: B1 Post-Emergence Efficacy - Test 1; settings: 1000 g/ha, after 13 days, five point scale
Method: as §1

Setaria faberi (SETFA) = experiment: B1 Post-Emergence Efficacy - Test 1; settings: 1000 g/ha, after 13 days, five point scale
Method: as §1

Solanum nigrum (SOLNI) = experiment: B1 Post-Emergence Efficacy - Test 1; settings: 1000 g/ha, after 13 days, five point scale
Method: as §1

[5] = test system: Abutilon theophrasti (ABUTH); experiment: B2 Post-Emergence Efficacy - Test 2; settings: 15 days after application, 0-100 scale
Method: (§2) Seeds of a variety of test species (see Table B1) were sown in standard soil in pots. After cultivation for 12 days (post-emergence) under controlled conditions in a glasshouse (at 24/18° C. or 20/16° C., at day/night; 16 hours light; 65% humidity), the plants were sprayed with an aqueous spray solution derived from the formulation of the technical active ingredient dissolved in IF50 (see Table B2 for composition) and adjuvant (Genapol X080) was added to the spray solution at a rate of 0.2% v/v.
(§3) After application, the test plants were grown in a glasshouse under controlled conditions (as above) and watered twice daily. Herbicidal activity was evaluated 15 days after application on a 0-100 scale. The results, where 0=no damage to test plant and 100=total kill of test plant are shown below in Tables 8 to 11.

[6] = test system: Amaranthus retroflexus (AMARE); experiment: B2 Post-Emergence Efficacy - Test 2; settings: 15 days after application, 0-100 scale
Method: as §2, §3

Beta vulgaris (BEAVA) = experiment: B2 Post-Emergence Efficacy - Test 2; settings: 15 days after application, 0-100 scale
Method: as §2, §3

Brassica napus (BRSNN) = experiment: B2 Post-Emergence Efficacy - Test 2; settings: 15 days after application, 0-100 scale
Method: as §2, §3

[7] = test system: Chenopodium album (CHEAL); experiment: B2 Post-Emergence Efficacy - Test 2; settings: 15 days after application, 0-100 scale
Method: as §2, §3

Hordeum vulgare (HORVW) = experiment: B2 Post-Emergence Efficacy - Test 2; settings: 15 days after application, 0-100 scale
Method: as §2, §3

[8] = test system: Ipomoea hederacea (IPOHE); experiment: B2 Post-Emergence Efficacy - Test 2; settings: 15 days after application, 0-100 scale
Method: as §2, §3

Kochia scoparia (KSHSC) = experiment: B2 Post-Emergence Efficacy - Test 2; settings: 15 days after application, 0-100 scale
Method: as §2, §3

Lolium perenne (LOLPE) [9] = experiment: B2 Post-Emergence Efficacy - Test 2; settings: 15 days after application, 0-100 scale
Method: as §2, §3

Sinapis arvensis (SINAR) = experiment: B2 Post-Emergence Efficacy - Test 2; settings: 15 days after application, 0-100 scale
Method: as §2, §3

Stellaria media (STEME) = experiment: B2 Post-Emergence Efficacy - Test 2; settings: 15 days after application, 0-100 scale
Method: as §2, §3

[10] = test system: Triticum aestivum (TRZAW); experiment: B2 Post-Emergence Efficacy - Test 2; settings: 15 days after application, 0-100 scale
Method: as §2, §3

Veronica persica (VERPE) = experiment: B2 Post-Emergence Efficacy - Test 2; settings: 15 days after application, 0-100 scale
Method: as §2, §3

Cc1nn(C)c(=O)c(-c2c(F)ccc(Cl)c2CCc2ccc(C(F)(F)F)nc2)c1O [Compound 1.042, 4-[3-chloro-6-fluoro-2-[2-[6-(trifluoromethyl)-3-pyridyl]ethyl]phenyl]-5-hydroxy-2,6-dimethyl-pyridazin-3-one]
percentage damage caused to the plant, AMARE [1]: 5 (5=80-100%)
percentage damage caused to the plant, ECHCG [2]: 5 (5=80-100%)
percentage damage caused to the plant, IPOHE [3]: 5 (5=80-100%)
percentage damage caused to the plant, LOLPE (Lolium perenne (LOLPE) [4]): 5 (5=80-100%)
percentage damage caused to the plant, SETFA (Setaria faberi (SETFA)): 5 (5=80-100%)
percentage damage caused to the plant, SOLNI (Solanum nigrum (SOLNI)): 5 (5=80-100%)
Herbicidal activity ABUTH ([5]; 15 g/Ha): 80
Herbicidal activity ABUTH ([5]; 30 g/Ha): 90
Herbicidal activity ABUTH ([5]; 60 g/Ha): 100
Herbicidal activity ABUTH ([5]; 125 g/Ha): 100
Herbicidal activity ABUTH ([5]; 250 g/Ha): 100
Herbicidal activity ABUTH ([5]; 500 g/Ha): 100
Herbicidal activity AMARE ([6]; 30 g/Ha): 100
Herbicidal activity AMARE ([6]; 60 g/Ha): 100
Herbicidal activity AMARE ([6]; 125 g/Ha): 100
Herbicidal activity AMARE ([6]; 250 g/Ha): 100
Herbicidal activity AMARE ([6]; 500 g/Ha): 100
Herbicidal activity BEAVA (Beta vulgaris (BEAVA); 15 g/Ha): 80
Herbicidal activity BEAVA (Beta vulgaris (BEAVA); 30 g/Ha): 70
Herbicidal activity BEAVA (Beta vulgaris (BEAVA); 60 g/Ha): 80
Herbicidal activity BEAVA (Beta vulgaris (BEAVA); 125 g/Ha): 90
Herbicidal activity BEAVA (Beta vulgaris (BEAVA); 250 g/Ha): 90
Herbicidal activity BEAVA (Beta vulgaris (BEAVA); 500 g/Ha): 90
Herbicidal activity BRSNN (Brassica napus (BRSNN); 15 g/Ha): 90
Herbicidal activity BRSNN (Brassica napus (BRSNN); 30 g/Ha): 90
Herbicidal activity BRSNN (Brassica napus (BRSNN); 60 g/Ha): 90
Herbicidal activity BRSNN (Brassica napus (BRSNN); 125 g/Ha): 90
Herbicidal activity BRSNN (Brassica napus (BRSNN); 250 g/Ha): 90
Herbicidal activity BRSNN (Brassica napus (BRSNN); 500 g/Ha): 90
Herbicidal activity CHEAL ([7]; 30 g/Ha): 90
Herbicidal activity CHEAL ([7]; 60 g/Ha): 90
Herbicidal activity CHEAL ([7]; 125 g/Ha): 90
Herbicidal activity CHEAL ([7]; 250 g/Ha): 100
Herbicidal activity CHEAL ([7]; 500 g/Ha): 100
Herbicidal activity HORVW (Hordeum vulgare (HORVW); 15 g/Ha): 10
Herbicidal activity HORVW (Hordeum vulgare (HORVW); 30 g/Ha): 20
Herbicidal activity HORVW (Hordeum vulgare (HORVW); 60 g/Ha): 20
Herbicidal activity HORVW (Hordeum vulgare (HORVW); 125 g/Ha): 40
Herbicidal activity HORVW (Hordeum vulgare (HORVW); 250 g/Ha): 80
Herbicidal activity HORVW (Hordeum vulgare (HORVW); 500 g/Ha): 80
Herbicidal activity IPOHE ([8]; 15 g/Ha): 100
Herbicidal activity IPOHE ([8]; 30 g/Ha): 100
Herbicidal activity IPOHE ([8]; 60 g/Ha): 100
Herbicidal activity IPOHE ([8]; 125 g/Ha): 100
Herbicidal activity IPOHE ([8]; 250 g/Ha): 100
Herbicidal activity IPOHE ([8]; 500 g/Ha): 100
Herbicidal activity KCHSC (Kochia scoparia (KSHSC); 15 g/Ha): 0
Herbicidal activity KCHSC (Kochia scoparia (KSHSC); 30 g/Ha): 10
Herbicidal activity KCHSC (Kochia scoparia (KSHSC); 60 g/Ha): 10
Herbicidal activity KCHSC (Kochia scoparia (KSHSC); 125 g/Ha): 20
Herbicidal activity KCHSC (Kochia scoparia (KSHSC); 250 g/Ha): 30
Herbicidal activity KCHSC (Kochia scoparia (KSHSC); 500 g/Ha): 60
Herbicidal activity LOLPE (Lolium perenne (LOLPE) [9]; 15 g/Ha): 60
Herbicidal activity LOLPE (Lolium perenne (LOLPE) [9]; 30 g/Ha): 70
Herbicidal activity LOLPE (Lolium perenne (LOLPE) [9]; 60 g/Ha): 70
Herbicidal activity LOLPE (Lolium perenne (LOLPE) [9]; 125 g/Ha): 90
Herbicidal activity LOLPE (Lolium perenne (LOLPE) [9]; 250 g/Ha): 90
Herbicidal activity LOLPE (Lolium perenne (LOLPE) [9]; 500 g/Ha): 90
Herbicidal activity SINAR (Sinapis arvensis (SINAR); 15 g/Ha): 80
Herbicidal activity SINAR (Sinapis arvensis (SINAR); 30 g/Ha): 90
Herbicidal activity SINAR (Sinapis arvensis (SINAR); 60 g/Ha): 90
Herbicidal activity SINAR (Sinapis arvensis (SINAR); 125 g/Ha): 90
Herbicidal activity SINAR (Sinapis arvensis (SINAR); 250 g/Ha): 90
Herbicidal activity SINAR (Sinapis arvensis (SINAR); 500 g/Ha): 90
Herbicidal activity STEME (Stellaria media (STEME); 15 g/Ha): 100
Herbicidal activity STEME (Stellaria media (STEME); 30 g/Ha): 100
Herbicidal activity STEME (Stellaria media (STEME); 60 g/Ha): 90
Herbicidal activity STEME (Stellaria media (STEME); 125 g/Ha): 100
Herbicidal activity STEME (Stellaria media (STEME); 250 g/Ha): 100
Herbicidal activity STEME (Stellaria media (STEME); 500 g/Ha): 100
Herbicidal activity TRZAW ([10]; 15 g/Ha): 20
Herbicidal activity TRZAW ([10]; 30 g/Ha): 30
Herbicidal activity TRZAW ([10]; 60 g/Ha): 60
Herbicidal activity TRZAW ([10]; 125 g/Ha): 70
Herbicidal activity TRZAW ([10]; 250 g/Ha): 80
Herbicidal activity TRZAW ([10]; 500 g/Ha): 80
Herbicidal activity VERPE (Veronica persica (VERPE); 15 g/Ha): 80
Herbicidal activity VERPE (Veronica persica (VERPE); 30 g/Ha): 90
Herbicidal activity VERPE (Veronica persica (VERPE); 60 g/Ha): 100
Herbicidal activity VERPE (Veronica persica (VERPE); 125 g/Ha): 100
Herbicidal activity VERPE (Veronica persica (VERPE); 250 g/Ha): 100
Herbicidal activity VERPE (Veronica persica (VERPE); 500 g/Ha): 100
